Source: US6187772A, “Pyrroloazepine compounds” (Suntory Limited, priority 1997, dated 2001)

Tests used:
serotonin (5-HT) = serotonin (5-HT) (Cavia porcellus, UniProt A0A286Y537); test: Anti-serotonin (5-HT) action (contraction of guinea pig superior mesenteric artery induced by serotonin); format: cell-based, Hartley male guinea pig; conditions: contraction induced by 10^-5 M 5-HT = 100%, helical superior mesenteric artery preparation, Tyrode solution, 37° C; for remaining activity at 1 µM: test drug 10^-6 M, read-out: Anti 5-HT action (% of Control), 10^-6 M; for remaining activity at 0.1 µM: test drug 10^-7 M, read-out: Anti 5-HT action (% of Control), 10^-7 M
serotonin (5-HT), sequence (A0A286Y537 1-470): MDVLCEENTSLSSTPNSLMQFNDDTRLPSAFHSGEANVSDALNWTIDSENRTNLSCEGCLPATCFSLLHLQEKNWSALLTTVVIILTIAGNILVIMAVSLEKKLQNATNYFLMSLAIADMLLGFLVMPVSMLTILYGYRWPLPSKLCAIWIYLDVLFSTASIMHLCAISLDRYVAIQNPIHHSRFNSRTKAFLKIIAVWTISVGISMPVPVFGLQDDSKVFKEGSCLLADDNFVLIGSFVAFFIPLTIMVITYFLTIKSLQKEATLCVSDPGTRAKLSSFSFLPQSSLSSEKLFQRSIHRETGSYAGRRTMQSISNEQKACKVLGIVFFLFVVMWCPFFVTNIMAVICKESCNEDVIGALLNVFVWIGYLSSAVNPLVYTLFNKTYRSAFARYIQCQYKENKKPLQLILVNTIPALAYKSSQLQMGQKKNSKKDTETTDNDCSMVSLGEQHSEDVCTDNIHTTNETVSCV
Method: (§1) With respect to the compounds of the present invention, their anti-α1 action and anti-serotonin (5-HT) action were investigated by the methods which will be described below.
(2) Anti-serotonin (5-HT) action
A preparation cut in a helical form was suspended under restomg tension of 0.3 g in a Magnus cylinder filled with the Tyrode solution which had been aerated with a gas mixture of 95% O2 and 5% CO2 and maintained at 37° C. Using an isometric transducer ("UL-10", manufactured by SHINKOH K.K.) and a pressure preamplifier ("DSA-605A", manufactured by SHINKOH K.K.), variations in tension were measured. The isometric tensions were recorded on a pen-writing recorder ("VP-6537A", manufactured by NATIONAL K.K.). Taking the contraction induced by 10^-5 M serotonin (5-HT) as 100%, the percent contractions by 10^-5 M 5-HT in the presence of each test drug at 10^-8 M, 10^-7 M and 10^-6 M were determined as anti-5-HT action.

α1 = test: Anti-α1 action (contraction of guinea pig thoracic aorta induced by norepinephrine); format: cell-based, Hartley male guinea pig; conditions: tonic contraction induced by 10^-5 M norepinephrine = 100%, helical thoracic aorta preparation, Tyrode solution, 37° C; for Anti α1 action (% of Control), 10^-7 M: test drug 10^-7 M, 0.1 µM; for Anti α1 action (% of Control), 10^-8 M: test drug 10^-8 M, 0.01 µM
Method: as §1
The thoracic aorta of each Hartley male guinea pig (body weight: 300-500 g) was excised. A preparation cut in a helical form was suspended under 1 g load in a Magnus cylinder filled with the Tyrode solution which had been aerated with a gas mixture of 95% O2 and 5% CO2 and maintained at 37° C. Using an isometric transducer ("TB-612J", manufactured by Nihon Kohden Corporation) and a pressure preamplifier ("AP-620G", manufactured by Nihon Kohden Corporation), variations in tension were measured. The isometric tensions were recorded on a thermal pen-writing recorder ("WT-647G", manufactured by Nihon Kohden Corporation). Taking the tonic contraction induced by 10^-5 M norepinephrine (NE) as 100%, the percent contractions upon addition of each test drug at 10^-8 M and 10^-7 M were determined as anti-α1 action.

| SMILES | remaining activity at 1 µM (serotonin (5-HT)) [%] | remaining activity at 0.1 µM (serotonin (5-HT)) [%] | Anti α1 action (% of Control), 10^-7 M (α1) | Anti α1 action (% of Control), 10^-8 M (α1) | remaining activity at 0.01 µM (serotonin (5-HT); test drug 10^-8 M, read-out: Anti 5-HT action (% of Control), 10^-8 M) [%] |
| --- | --- | --- | --- | --- | --- |
| CN1CCC(=O)c2c(ccn2CCCCN2CCC(C(=O)c3ccc(F)cc3)CC2)C1=O [Compound No. 15, 1-[4-[4-(4-fluorobenzoyl)piperidino]-butyl]-5-methyl-1,4,5,6,7,8-hexahydropyrrolo[3,2-c]azepine-4,8-dione] | 26.6 | 75.3 | 35.4 % of Control | 59.9 % of Control | – |
| CN1CCC(=O)c2c(ccn2CCCCN2CCC(c3noc4cc(F)ccc34)CC2)C1=O [Compound No. 17, 1-[4-[4-(6-fluoro-1,2-benzisoxazol-3-yl)piperidino]butyl]-5-methyl-1,4,5,6,7,8-hexahydropyrrolo[3,2-c]azepine-4,8-dione] | 8.9 | 55.2 | 14.0 % of Control | 27.8 % of Control | 80.7 |
| CN1CCC(=O)c2cn(CCCCN3CCC(C(=O)c4ccc(F)cc4)CC3)cc2C1=O [Compound No. 18, 2-[4-[4-(4-fluorobenzoyl)piperidino]-butyl]-5-methyl-2,4,5,6,7,8-hexahydropyrrolo[3,4-c]azepine-4,8-dione] | 25.3 | 81.7 | 37.3 % of Control | 76.0 % of Control | – |
| CN1CCC(=NO)c2cn(CCCCN3CCC(C(=O)c4ccc(F)cc4)CC3)cc2C1=O [Compound No. 21, 2-[4-[4-(4-fluorobenzoyl)piperidino]-butyl]-8-hydroxyimino-5-methyl-2,4,5,6,7,8-hexahydropyrrolo[3,4-c]azepin-4-one] | 24.9 | 85.5 | 36.9 % of Control | 69.7 % of Control | – |
